Reference: patent US20150258101A1 (Proximagen Limited, priority 2014, published 2015)
Structures can show the parent of a compound that is named as a salt.

Target: T1, purified recombinantly expressed human SSAO (Homo sapiens, UniProt Q16853)
T1 construct: made in house
T1 sequence (Q16853 1-763): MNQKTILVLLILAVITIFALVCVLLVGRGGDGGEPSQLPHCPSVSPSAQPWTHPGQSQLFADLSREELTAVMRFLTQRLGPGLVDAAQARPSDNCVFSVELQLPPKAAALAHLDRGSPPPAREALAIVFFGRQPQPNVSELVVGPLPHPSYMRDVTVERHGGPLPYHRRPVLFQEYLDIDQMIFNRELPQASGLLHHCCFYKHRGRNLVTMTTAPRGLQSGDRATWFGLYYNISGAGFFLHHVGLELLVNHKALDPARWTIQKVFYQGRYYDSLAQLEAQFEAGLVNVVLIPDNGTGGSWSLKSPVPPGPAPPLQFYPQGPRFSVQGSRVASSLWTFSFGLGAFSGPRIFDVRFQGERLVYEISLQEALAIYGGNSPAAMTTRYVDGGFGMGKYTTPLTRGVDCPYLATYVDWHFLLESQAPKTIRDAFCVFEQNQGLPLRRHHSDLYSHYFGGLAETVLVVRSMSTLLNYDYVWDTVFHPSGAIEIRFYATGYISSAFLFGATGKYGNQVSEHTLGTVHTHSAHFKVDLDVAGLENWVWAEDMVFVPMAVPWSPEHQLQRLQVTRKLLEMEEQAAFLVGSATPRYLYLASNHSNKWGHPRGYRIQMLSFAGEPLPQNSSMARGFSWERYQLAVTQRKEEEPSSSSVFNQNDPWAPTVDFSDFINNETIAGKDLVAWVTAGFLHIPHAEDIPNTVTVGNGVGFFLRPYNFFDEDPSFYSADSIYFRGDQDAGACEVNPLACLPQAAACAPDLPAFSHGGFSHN
Assay: SSAO enzyme inhibition assay (benzylamine substrate; hydrogen peroxide/HRP-coupled or 14C aldehyde detection)
Assay type: biochemical
Conditions: SSAO inhibitory activity, RT
Experimental: All primary assays were performed at RT. with purified recombinantly expressed human SSAO. Enzyme was prepared essentially as described in Öhman et al. (Protein Expression and Purification 46 (2006) 321-331). In addition, secondary- and selectivity assays were performed using SSAO prepared from various tissues or purified rat recombinant SSAO. The enzyme activity was assayed with benzylamine as substrate by measuring either benzaldehyde production, using ^14C-labeled substrate, or by utilizing the production of hydrogen peroxide in a horseradish peroxidase (HRP) coupled reaction. Briefly, test compounds were dissolved in dimethyl sulfoxide (DMSO) to a concentration of 10 mM. Dose-response measurements were assayed by either creating 1:10 serial dilutions in DMSO to produce a 7 point curve or by making 1:3 serial dilutions in DMSO to produce 11 point curves.
In a horseradish peroxidase (HRP) coupled reaction, hydrogen peroxide oxidation of 10-acetyl-3,7-dihydroxyphenoxazine produced resorufin, which is a highly fluorescent compound (Zhout and Panchuk-Voloshina. Analytical Biochemistry 253 (1997) 169-174; Amplex® Red Hydrogen Peroxide/peroxidase Assay kit, Invitrogen A22188). Enzyme and compounds in 50 mM sodium phosphate, pH 7.4 were set to pre-incubate in flat-bottomed microtiter plates for approximately 15 min before initiating the reaction by addition of a mixture of HRP, benzylamine and Amplex reagent. Benzylamine concentration was fixed at a concentration corresponding to the Michaelis constant, determined using standard procedures. Fluorescence intensity was then measured at several time points during 1-2 h, exciting at 544 nm and reading the emission at 590 nm. For the human SSAO assay final concentrations of the reagents in the assay wells were: SSAO enzyme 1 ug/ml, benzylamine 100 uM, Amplex reagent 20 uM, HRP 0.1 U/mL and varying concentrations of test compound. The inhibition was measured as % decrease of the signal compared to a control without inhibitor (only diluted DMSO). The background signal from a sample containing no SSAO enzyme was subtracted from all data points. Data was fitted to a four parameter logistic model and IC50 values were calculated using the Graph Pad Prism 4 or XLfit 4 programs.
SSAO activity was assayed using 14C-labeled benzylamine and analysed by measuring radioactive benzaldehyde. In a white 96-well optiplate (Packard), 20 uL of diluted test compound was pre-incubated at room temperature with 20 uL SSAO enzyme for approximately 15 min with continuous agitation. All dilutions were made with PBS. The reaction was initiated by adding 20 uL of the benzylamine substrate solution containing [7-14C] Benzylamine hydrochloride (CFA589, GE Healthcare). The plate was incubated for 1 h as above after which the reaction was stopped by acidification (10 uL 1M aq HCl). Then 90 uL Micro Scint-E solution (Perkin-Elmer) was added to each well and the plate was continuously mixed for 15 min. Phase separation occurred instantly and activity was read in a Topcount scintillation counter (Perkin-Elmer). In the final reaction well, the human recombinant SSAO concentration was 10 ug/ml. In order to optimize sensitivity, the substrate concentration was decreased as compared to the HRP coupled assay in order to get a higher fraction of radioactive product. In the human SSAO assay, benzylamine concentration was 40 uM (0.2 uCi/mL). Data was analysed as above.

`Clc1ccc(-n2c(-c3csc(N4CCNCC4)n3)nc3ccncc32)cc1` [Example 17, 1-{4-[3-(4-Chlorophenyl)-3H-imidazo[4,5-c]pyridin-2-yl]-1,3-thiazol-2-yl}piperazine dihydrochloride] was tested, and the IC50 was 200 to 1200 nM.
`Cc1cc(F)ccc1-n1c(-c2ccc(N3CCOCC3)nc2)nc2ccncc21` [Example 62, 4-{5-[3-(4-Fluoro-2-methylphenyl)-3H-imidazo[4,5-c]pyridin-2-yl]pyridin-2-yl}morpholine] was tested, and the IC50 was 50 to 200 nM.
For `NC(=O)N1CCN(c2ccc(-c3nc4ccncc4n3-c3ccc(Cl)cc3)cn2)CC1` [Example 90, 4-{5-[3-(4-Chlorophenyl)-3H-imidazo[4,5-c]pyridin-2-yl]pyridin-2-yl}piperazine-1-carboxamide dihydrochloride], the IC50 was < 50 nM.
For `O=C(NC1CC1)c1ccc(-c2nc3ccncc3n2-c2ccc(Cl)cc2)cn1` [Example 14, 5-[3-(4-Chlorophenyl)-3H-imidazo[4,5-c]pyridin-2-yl]-N-cyclopropylpyridine-2-carboxamide], the IC50 was 200 to 1200 nM.
In the case of `Fc1cncc(-c2cc3ccncc3n2-c2ccc(Cl)cc2)c1` [Example 148, 3-[1-(4-Chlorophenyl)-1H-pyrrolo[2,3-c]pyridin-2-yl]-5-fluoropyridine], the IC50 is reported as < 50 nM.
With `COCCCNc1ncc(-c2nc3ccncc3n2-c2ccc(C)cc2)cn1` [Example 37, N-(3-Methoxypropyl)-5-[3-(4-methylphenyl)-3H-imidazo [4,5-c]pyridin-2-yl]pyrimidin-2-amine] the IC50 was < 50 nM.
`CN(C)c1cc(-c2nc3ccncc3n2-c2ccc(F)cc2)ccn1` [Example 109, 4-[3-(4-Fluorophenyl)-3H-imidazo[4,5-c]pyridin-2-yl]-N,N-dimethylpyridin-2-amine] showed an IC50 of 200 to 1200 nM.
In the case of `Cc1cc(F)ccc1-n1c(-c2cnc(N3CCOCC3)nc2)nc2ccncc21` [Example 55, 4-{5-[3-(4-Fluoro-2-methylphenyl)-3H-imidazo[4,5-c]pyridin-2-yl]pyrimidin-2-yl}morpholine], the IC50 is reported as < 50 nM.
For `Cc1nc(N2CCOCC2)ncc1-c1nc2ccncc2n1-c1ccc(F)cc1` [Example 26, 4-{5-[3-(4-Fluorophenyl)-3H-imidazo[4,5-c]pyridin-2-yl]-4-methylpyrimidin-2-yl} morpholine], the IC50 was 50 to 200 nM.
`Clc1ccc(-n2c(-c3ccc(Cn4ccnc4)cc3)nc3ccncc32)cc1` [Example 48, 1-({4-[3-(4-Chlorophenyl)-3H-imidazo[4,5-c]pyridin-2-yl]phenyl}methyl)-1H-imidazole] was tested, and the IC50 was < 50 nM.
With `O=c1cc(-c2cc3ccncc3n2-c2ccc(Cl)cc2)cn[nH]1` [Example 146, 5-[1-(4-Chlorophenyl)-1H-pyrrolo[2,3-c]pyridin-2-yl]-2,3-dihydropyridazin-3-one] the IC50 was 50 to 200 nM.
For `Oc1ccc(-n2c(-c3ccc(N4CCOCC4)nc3)nc3ccncc32)cc1` [Example 65, 4-{2-[6-(Morpholin-4-yl)pyridin-3-yl]-3H-imidazo[4,5-c]pyridin-3-yl}phenol], the IC50 was < 50 nM.
With `Cc1cc(N2CCOCC2)nc(C)c1-c1nc2ccncc2n1-c1ccc(F)cc1` [Example 29, 4-{5-[3-(4-Fluorophenyl)-3H-imidazo[4,5-c]pyridin-2-yl]-4,6-dimethylpyridin-2-yl} morpholine] the IC50 was 200 to 1200 nM.
`Clc1ccc(-n2c(-c3ccc(-n4cccn4)nc3)cc3ccncc32)cc1` [Example 151, 5-[1-(4-Chlorophenyl)-1H-pyrrolo[2,3-c]pyridin-2-yl]-2-(1H-pyrazol-1-yl)pyridine; bis(trifluoroacetic acid)] gave an IC50 of 50 to 200 nM.
`Nc1ccc(-c2nc3ccncc3n2-c2ccc(Cl)cc2F)cn1` [Example 105, 5-[3-(4-Chloro-2-fluorophenyl)-3H-imidazo[4,5-c]pyridin-2-yl]pyridin-2-amine] was tested, and the IC50 was 200 to 1200 nM.
For `Cc1ccc(-n2c(-c3cnc(NCCOC(C)C)nc3)nc3ccncc32)cc1` [Example 39, 5-[3-(4-Methylphenyl)-3H-imidazo[4,5-c]pyridin-2-yl]-N-[2-(propan-2-yloxy)ethyl] pyrimidin-2-amine], the IC50 was < 50 nM.
